Data reported in patent publication US20240350647A1, “STING SENSITIZING AGENTS” (STipe Therapeutics ApS, priority 2023, published 2024).
Where a SMILES comes first, the peptide text is derived from it. Bridges are numbered along the chain shown (N, C = ends). [ ]: non-standard residue; d: D form. The star is where a group is joined. C16 diacid = O=C(O)CCCCCCCCCCCCCCC(=O)*; AEEA = NCCOCCOCC(=O)O

Columns and labels:
[1] = FIG. 10B; conditions: rat, in vivo, iv, 10 mg/kg
Description: Table printed on a drawing sheet, FIG. 10B
(§1) The patent's description of the figure: FIGS. 10A-10C. Pharmacokinetic profile and parameter for peptides after intravenous administration. FIG. 10A) Mouse PK data (10 mg/kg, bolus IV, n=3 per timepoint). FIG. 10B) Rat PK data (10 mg/kg, bolus IV, n=3 per timepoint). FIG. 10C) Non-human primate (NHP) PK data (4 mg/kg, 30 min IV infusion, n=3). Error bars represent the standard deviation (SD).
First reader's note: Rat PK parameters; the plot legend on the same sheet gives 10 mg/kg (IV) for both agents, and the top-left cell 'PK parameters / rat' spans the first two rows.

[2] = FIG. 10A; conditions: mouse, in vivo, iv, 10 mg/kg
Description: Table printed on a drawing sheet, FIG. 10A
as §1
First reader's note: Mouse PK parameters; the legend of the plot on the same sheet gives 10 mg/kg (IV) for both agents.

[3] = Pharmacokinetics after intravenous bolus, mouse; format: in vivo; conditions: 10 mg/kg bolus IV
Description: (§2) Test agents were formulated in 2% (v/v) propylene glycol in 25 mM HEPES, pH 7.4 and administered with a bolus injection at 10.0 mg/kg via the tail vain to male CD-1 mice (Charles River Laboratories) or male Wistar rats (Charles River Laboratories), or with a 30-min intravenous infusion at 4 mg/kg to male cynomolgus monkeys.
(§3) Blood samples were collected at 2.5, 5, 10, 30, 60, 120, 240 and 480 minutes after administration (mouse and rat), or at 5, 15, 30, 60, 120, 240, 360, 480 and 1440 min (Agent 1) or at 5, 15, 30, 45, 60, 90, 150, 240 and 480 min (Agent 2) after the start of infusion in monkeys. Samples were immediately mixed with a protease inhibitor cocktail (Roche cOmplete™ EDTA-free) before being cooled and centrifuged for plasma separation. Plasma samples were frozen and stored at −20° C. until analysis.
(§4) To rat samples, blank rat plasma was added up to a volume of 100 μl. […]
(§5) Mouse and rat samples: Separation was done with a C18 column (Phenomenex Kinetex XB—C18 (100×2.1 mm, 1.7 μm)), using a gradient between 1% formic acid in water and 2% DMSO in acetonitrile (Agent 1) or acetonitrile (Agent 2). […] The range of quantitation was 4-20,000 ng/mL.
(§6) Non-compartmental PK analysis on plasma concentration versus time data was analyzed by non-compartmental approaches using the WinNonlin software program (version 6.3 or above, Pharsight, Mountain View, CA). […]

[4] = Pharmacokinetics after 30-min intravenous infusion, cynomolgus monkey; format: in vivo; conditions: 4 mg/kg 30 min IV infusion
Description: as §2
Blood samples were collected at 2.5, 5, 10, 30, 60, 120, 240 and 480 minutes after administration (mouse and rat), or at 5, 15, 30, 60, 120, 240, 360, 480 and 1440 min (Agent 1) or at 5, 15, 30, 45, 60, 90, 150, 240 and 480 min (Agent 2) after the start of infusion in monkeys. […]
Monkey samples, Agent 1: Separation was done with a C18 column (Waters Acquity UPLC BEH C18 (50×2.1 mm, 1.7 μm)), using a gradient between 0.1% formic acid in water and 0.1% formic acid in acetonitrile. […] The range of quantitation was 10-3,000 ng/mL.
Monkey samples, Agent 2: Separation was done with a C18 column (Waters Acquity CSH C18 (50×2.1 mm, 1.7 μm)), using a gradient between 0.2% formic acid in acetonitrile and 0.2% formic acid in water. […] The range of quantitation was 10-10,000 ng/mL.
as §6

[5] = Pharmacokinetics after intravenous bolus, rat; format: in vivo; conditions: 10 mg/kg bolus IV
Description: as §2, §3, §4, §5, §6

For `CC[C@H](C)[C@H](NC(=O)[C@H](CC(N)=O)NC(=O)[C@H](CCCCN)NC(=O)[C@H](C)NC(=O)[C@H](CCCCN)NC(=O)[C@H](CCCCN)NC(=O)COCCOCCNC(=O)COCCOCCNC(=O)CCCCCCCCCCCCCCC(=O)O)C(=O)N[C@H](C(=O)N[C@@H](CC(C)C)C(=O)N[C@@H](CC(C)C)C(=O)N[C@@H](CCCCN)C(=O)NCC(=O)N[C@@H](CC(C)C)C(=O)N[C@@H](CCC(=O)O)C(=O)N[C@H](C(=O)N[C@H](C(=O)N[C@@H](CC(N)=O)C(=O)N[C@@H](CC(=O)O)C(=O)N[C@@H](Cc1c[nH]c2ccccc12)C(=O)N[C@@H](Cc1c[nH]cn1)C(=O)N[C@@H](Cc1ccccc1)C(=O)N[C@H]1CSSC[C@@H](C(N)=O)NC(=O)[C@@H](CCCNC(=N)N)NC(=O)[C@H](CCCNC(=N)N)NC(=O)[C@@H](CCCCN)NC(=O)[C@H](CCCCN)NC(=O)[C@@H](CCCNC(=N)N)NC(=O)CNC(=O)[C@@H](CCCNC(=N)N)NC(=O)[C@H](CCCNC(=N)N)NC(=O)[C@@H](CCCNC(=N)N)NC1=O)[C@@H](C)CC)C(C)C)C(C)C` [Agent 1] ({C16 diacid-AEEA-AEEA}-KKAKNIVLLKGLEVINDWHFC[dR]R[dR]G[dR]K[dK]R[dR]C-NH2; disulfide 21-31), the C0 [1] was 72.7 µg/mL, the C0 [2] was 30.5 µg/mL and the “increase in exposure (AUC0-inf) compared to Agent 2, at equal dose” value (“increase in exposure (AUC0-inf)” for short) [3] was “approximately 32 fold”. The “increase in exposure (AUC0-inf)” value [4] was ~13 fold and the “increase in exposure (AUC0-inf)” value [5] was ~27 fold.
